Measurements from patent publication US5677322A, “Maillard reaction inhibitor” (Otsuka Pharmaceutical Co., Ltd., priority 1993, dated 1997).

Tested on: Lysozyme
Test: Inhibition of Maillard reaction: suppression of lysozyme dimer formation (lysozyme + fructose, SDS-PAGE)
Assay type: biochemical
Settings: inhibition ratio of test compound to aminoguanidine (positive control); lysozyme 10 mg/ml, fructose 100 mM, 0.2M sodium phosphate pH 7.4, 37° C., 3 days; dimer amount by SDS-PAGE
Experimental: Lysozyme and fructose were dissolved in a buffer solution of 0.2M sodium phosphate (pH 7.4) to respectively give concentrations of 10 mg/ml and 100 mM. After incubating at 37° C. for 3 days, a definite amount of the mixture was taken out and electrophoresed with the use of SDS-PAGE. After the completion of the electrophoresis, the gel was stained with 0.2% Coomassie Brilliant Blue R-250 and the amount of the dimer thus formed was determined.
Each of the test compounds was added before the initiation of the incubation and the effect of suppressing the formation of the dimer was examined at various concentrations, whereby the IC50 value was obtained. As a positive control, aminoguanidine, which is a known glycation inhibitor, was employed and the inhibition ratio of the test compound to aminoguanidine (IC50 of aminoguanidine/IC50 of test compound) was calculated.

IC50 of aminoguanidine/IC50 of test compound	Molecule
53	2-Isopropylidenehydrazino-4-(3-pyridyl)thiazole [Test compound 89]
4.5	CC(C)=NN=C1NC(=O)C(Cc2c[nH]c3ccc(O)cc23)N1 (centres unmarked) [Test compound 41, 5-(5-Hydroxy-3-indolylmethyl)-2-isopropylidenehydrazonoimidazolidin-4-one]
57	CC(C)=NN=C1NC(=O)C(CCCCNC(=O)OCc2ccccc2)N1 (centres unmarked) [Test compound 62, 5-(4-Benzyloxycarbonylaminobutyl)-2-isopropylidenehydrazonoimidazolidin-4-one]
3.1	2-Isopropylidenehydrazono-5(S)-(N-phenylcarbamoylmethyl)thiazolidin-4-one [Test compound 110]
6.8	CC(C)=NN=C1NC(=O)C(CC(=O)N(C)c2ccccc2)S1 (centres unmarked) [Test compound 65, 2-Isopropylidenehydrazono-5-(N-methyl-N-phenylcarbamoylmethyl)thiazolidin-4-one]
6.1	COC(=O)c1c(F)cccc1NC(=O)CC1SC(=NN=C(C)C)NC1=O (centres unmarked) [Test compound 118, 5-[N-(3-fluoro-2-methoxycarbonylphenyl)carbamoylmethyl]-2-isopropylidenehydrazonothiazolidin-4-one]
0.6	2-Cyclohexylmethylenehydrazono-5-(N-phenylcarbamoylmethyl)thiazolidin-4-one [Test compound 83]
11.0	CC(C)=NN=C1NC(=O)C(Cc2ccc(OCc3cccnc3)cc2)S1 (centres unmarked) [Test compound 48, 2-Isopropylidenehydrazono-5-[4-(3-pyridylmethoxy)benzyl]thiazolidin-4-one]
0.7	CC(C)=NN=C1NC(=O)C(CC(=O)N[C@@H](Cc2c[nH]c3ccccc23)C(=O)O)S1 (some centres unmarked) [Test compound 104, 5-{N-[1-carboxy-2-(3-indolyl)ethyl]carbamoylmethyl}-2-isopropylidenehydrazonothiazolidin-4-one]
7.0	CC(C)=NN=C1NC(=O)C(CC(=O)Nc2ccc(F)cc2C(=O)O)S1 (centres unmarked) [Test compound 117, 5-[N-(2-carboxy-4-fluorophenyl)carbamoylmethyl]-2-isopropylidenehydrazonothiazolidin-4-one]
3.5	CC(C)=NN=C1NC(=O)C(Cc2ccc(OCc3cccs3)cc2)N1 (centres unmarked) [Test compound 36, 2-Isopropylidenehydrazono-5-[4-(2-thienylmethoxy)benzyl]imidazolidin-4-one]
0.3	CC(C)=NN=C1NC(=O)C(CC(=O)Nc2ccc(OCc3ccccc3)cc2)S1 (centres unmarked) [Test compound 50, 5-[N-(4-benzyloxyphenyl)carbamoylmethyl]-2-isopropylidenehydrazonothiazolidin-4-one]
4.8	CC(C)=NN=C1NC(=O)C(CC(=O)O)N1 (centres unmarked) [Test compound 45, 5-Carboxymethyl-2-isopropylidenehydrazonoimidazolidin-4-one]
1.5	O=C1NC(=NNS(=O)(=O)c2ccc(Br)cc2)NC1Cc1ccc(OCc2ccccc2)cc1 (centres unmarked) [Test compound 75]
0.8	NN=C1NC(=O)C(CC(=O)Nc2ccccc2)S1 (centres unmarked) [Test compound 81, 2-Hydrazono-5-(N-phenylcarbamoylmethyl)thiazolidin-4-one]
3.1	CC(C)=NN=C1NC(=O)C(CCC(=O)Nc2ccccc2)N1 (centres unmarked) [Test compound 80, 2-Isopropylidenehydrazono-5-[2-(N-phenylcarbamoyl)ethyl]imidazolidin-4-one]
1.5	CC(C)=NN=C1NC(=O)C(C(C)C)N1 (centres unmarked) [compound 79]
1.1	2-Isopropylidenehydrazono-5-(N-morpholinocarbamoylmethyl)thiazolidin-4-one [Test compound 69]

Continued, molecule first:

Molecule	IC50 of aminoguanidine/IC50 of test compound
CC(C)=NN=C1NC(=O)C(C)N1 (centres unmarked) [Test compound 2, 2-Isopropylidenehydrazono-5-methylimidazolidin-4-one]	2.8
CC(C)=NN=C1NC(=O)C(Cc2ccc(OCc3ccccc3)cc2)N1 (centres unmarked) [Test compound 1, 5-(4-Benzyloxybenzyl)-2-isopropylidenehydrazonoimidazolidin-4-one]	3.6
2-Isopropylidenehydrazono-5-[N-(2-methyl-5-methoxycarbonylphenyl)carbamoylmethyl]thiazolidin-4-one [Test compound 84]	3.5
CC(C)=NN=C1NC(=O)C(Cc2ccc([N+](=O)[O-])cc2)N1 (centres unmarked) [Test compound 33, 2-Isopropylidenehydrazono-5-(4-nitrobenzyl)imidazolidin-4-one]	2.4
CC(C)=NN=C1NC(=O)C(Cc2ccccc2)N1 (centres unmarked) [Test compound 3, 5-Benzyl-2-isopropylidenehydrazonoimidazolidin-4-one]	1.6
CC(C)=NN=C1NC(=O)C(CC(=O)NC2CCCCC2)S1 (centres unmarked) [Test compound 18, 5-(N-cyclohexylcarbamoylmethyl)-2-isopropylidenehydrazonothiazolidin-4-one]	1.5
CSc1ccc(CC2SC(=NN=C(C)C)NC2=O)cc1 (centres unmarked) [Test compound 11, 2-isopropylidenehydrazono-5-(4-methylthiobenzyl)thiazolidin-4-one]	1.2
5-(N-ethoxycarbonylmethylcarbamoylmethyl)-2-isopropylidenehydrazonothiazolidin-4-one [Test compound 19]	2.5
O=C1CN2C(=NN1)NC(=O)C2COCc1ccccc1 (centres unmarked) [Test compound 29, 9-Benzyloxymethyl-1,4,5,7-tetraazabicyclo[4.3.0]nonan-5-ene-3,8-dione]	0.6
CC(C)=NN=C1NC(=O)C(CC(=O)NCc2ccccc2)S1 (centres unmarked) [Test compound 30, 5-(N-Benzylcarbamoylmethyl)-2-isopropylidenehydrazonothiazolidin-4-one]	3.5
5-[N-(2-carboxymethylphenyl)carbamoylmethyl]-2-isopropylidenehydrazonothiazolidin-4-one [Test compound 108]	3.2
5-{N-[1-carboxy-2-(4-benzyloxyphenyl)ethyl]carbamoylmethyl}-2-isopropylidenehydrazonothiazolidin-4-one [Test compound 101]	1.5
5-[N-(5-carboxy-2-methylphenyl)carbamoylmethyl]-2-isopropylidenehydrazonothiazolidin-4-one [Test compound 91]	1.6
5-[N-(4-bromophenyl)carbamoylmethyl]-2-isopropylidenehydrazonothiazolidin- 4-one [Test compound 56]	10.2
4-[4-(4-Chlorobenzyloxy)phenyl]-2-isopropylidenehydrazinothiazole [Test compound 27]	3.1
2-Isopropylidenehydrazono-5-[N-(4-methylthiophenyl)carbamoylmethyl]thiazolidin-4-one [Test compound 55]	5.3
5-(N-isopropylcarbamoylmethyl)-2-isopropylidenehydrazonothiazolidin-4-one [Test compound 31]	0.6
CC(C)=NN=C1NC(=O)C(Cc2ccc(OCC3CCCCC3)cc2)N1 (centres unmarked) [Test compound 35, 5-[4-(Cyclohexylmethyloxy)benzyl]-2-isopropylidenehydrazonoimidazolidin-4-one]	0.8
CC(C)=NN=C1NC(=O)C(Cc2ccc(Sc3ccccc3)cc2)N1 (centres unmarked) [Test compound 10, 2-Isopropylidenehydrazono-5-(4-phenylthiobenzyl)imidazolidin-4-one]	5.4
2-Isopropylidenehydrazono-5-[N-(2-methoxycarbonyl-4-methylphenyl)carbamoylmethyl]imidazolidin-4-one [Test compound 96]	3.9
